Read-outs that look alike come from different tables or passages of the source.

Results on 14 compounds are retold here after patent US7420001B2 (Wyeth, priority 2003, dated 2008).

The target of one assay is T1, MMP-1 (Homo sapiens, UniProt P03956).
T1 sequence (P03956 100-269 limits assumed): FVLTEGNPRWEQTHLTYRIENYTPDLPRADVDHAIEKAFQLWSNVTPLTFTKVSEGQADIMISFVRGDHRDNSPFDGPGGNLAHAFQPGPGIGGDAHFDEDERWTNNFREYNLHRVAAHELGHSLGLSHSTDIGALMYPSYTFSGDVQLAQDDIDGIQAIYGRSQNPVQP

A further assay concerns the target T2, MMP-12 (Homo sapiens, UniProt P39900).
T2 construct: made in house
As to the kind of experiment: In vitro fluorescence assay of MMP-12 activity. As to conditions: recombinant human MMP-12. The class given is biochemical.

The next assay concerns the target T3, MMP-13 (Homo sapiens, UniProt P45452).
T3 construct: made in house
As to the kind of experiment: In-vitro fluorescence assay of MMP-13 activity. The class given is biochemical.

The next assay has as its target T4, MMP-14 (Homo sapiens, UniProt P50281).
T4 construct: 20 kDa; purchased Chemicon International, Inc. CC 1041
As to the kind of experiment: In-vitro fluorescence assay of MMP-14 activity. It is filed as biochemical.

The target in another assay is T5, MMP-2 (Homo sapiens, UniProt P08253).
T5 construct: purchased Oncogene Research Products (Calbiochem) PF023
T5 sequence (P08253 110-660): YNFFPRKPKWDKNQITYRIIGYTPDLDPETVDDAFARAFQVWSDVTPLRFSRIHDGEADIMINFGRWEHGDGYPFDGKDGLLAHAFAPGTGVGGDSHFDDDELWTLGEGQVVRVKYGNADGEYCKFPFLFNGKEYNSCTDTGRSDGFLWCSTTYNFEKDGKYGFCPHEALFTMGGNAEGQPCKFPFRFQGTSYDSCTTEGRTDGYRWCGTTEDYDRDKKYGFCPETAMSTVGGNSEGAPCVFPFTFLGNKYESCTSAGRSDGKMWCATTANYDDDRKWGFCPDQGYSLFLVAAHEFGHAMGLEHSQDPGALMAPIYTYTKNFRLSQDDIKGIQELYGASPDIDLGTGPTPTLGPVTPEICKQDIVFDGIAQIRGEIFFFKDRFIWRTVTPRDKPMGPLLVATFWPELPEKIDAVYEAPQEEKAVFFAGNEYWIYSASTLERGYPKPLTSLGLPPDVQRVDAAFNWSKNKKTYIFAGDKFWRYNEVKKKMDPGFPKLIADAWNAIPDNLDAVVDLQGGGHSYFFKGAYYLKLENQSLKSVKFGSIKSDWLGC
As to the kind of experiment: In-vitro fluorescence assay of MMP-2 activity. The class given is biochemical. Conditions: recombinant human MMP-2; read-out: MMP-2 IC50.

[1] abbreviates: recombinant human catalytic domain of MMP-13, read-out: MMP-13 IC50.
The mark [2] stands for this setting: recombinant human catalytic domain of MMP-14.

T2 sequence (P39900 106-280 limits assumed): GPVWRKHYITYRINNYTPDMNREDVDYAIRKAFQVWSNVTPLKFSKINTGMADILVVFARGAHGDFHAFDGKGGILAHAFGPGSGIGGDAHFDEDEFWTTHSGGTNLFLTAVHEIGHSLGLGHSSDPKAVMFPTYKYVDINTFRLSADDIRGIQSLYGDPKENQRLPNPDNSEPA
Procedure for MMP-12: A continuous, assay was used in which the substrate is a synthetic peptide containing a fluorescent group (7-methoxycoumarin; Mca) which is quenched by energy transfer to a 2,4-dinitrophenyl group. […] The concentration of the substrate stock was spectrophotometrically determined using the extinction coefficient at 410 nm of 7500 M^−1cm^−1. The assay buffer (pH 7.4) consisted of 50 mM Hepes, 100 mM NaCl, 5 mM CaCl2, and 0.005% Brij-35. […] The plates were then incubated at room temperature for 30 minutes. The enzymatic reactions were initiated by adding substrate to a final concentration of 20 μM and they were mixed by pipetting up and down. The final DMSO concentration in the assay was 10% and the final, total assay volume was 200 μl.
Procedure for MMP-14: A continuous assay was used in which the substrate is a synthetic peptide containing a fluorescent group (7-methoxycoumarin; Mca) which is quenched by energy transfer to a 2,4-dinitrophenyl group. […] The substrate used was Mca-PQGL-(3-[2,4-dinitrophenyl]-L-2,3-diaminopropionyl)-AR-OH (denoted as Wammp-5, custom synthesized by AnaSpec, Inc.). The assay buffer consisted of 50 mM Hepes (pH 7.4), 100 mM NaCl, 5 mM CaCl2, and 0.005% Brij-35. […] The enzymatic reactions were initiated by adding the substrate to a final concentration of 20 μM, and mixing 10 times with a pipette. The final DMSO concentration in the assay was 6.0%.
(§1) Plots of the inhibitor concentration vs. the percent inhibition were fit to the following equation: y=(a−d)/[1+(x/c)^b]+d, a general sigmoidal curve with Hill slope, a to d. x is the inhibitor concentration under test. y is the percent inhibition. a is the limiting response as x approaches zero. As x increases without bound, y tends toward its limit d. c is the inflection point (IC50) for the curve. That is, y is halfway between the lower and upper asymptotes when x=c. b is the slope factor or Hill coefficient.
Source text for MMP-2: A continuous assay was used in which the substrate is a synthetic peptide containing a fluorescent group (7-methoxycoumarin; Mca) which is quenched by energy transfer to a 2,4-dinitrophenyl group. […] The source of enzyme in the assay was the recombinant human MMP-2 (66 kDa) purchased from Oncogene Research Products (catalog number PF023 from Calbiochem). The substrate used was Mca-PQGL-(3-[2,4-dinitrophenyl]-L-2,3-diaminopropionyl)-AR-OH (denoted as Wammp-5, custom synthesized by AnaSpec, Inc.). The assay buffer consisted of 50 mM Hepes (pH 7.4), 100 mM NaCl, 5 mM CaCl2, and 0.005% Brij-35. […] The enzymatic reactions were initiated by adding the substrate to a final concentration of 20 μM, and mixing 10 times with a pipette. The final DMSO concentration in the assay was 6.0%.
as §1

As a reminder, the IC50 is the concentration that gives 50% inhibition. As to `CC(C)[C@H](NS(=O)(=O)c1ccc(-c2ccc(NC(=O)c3nc4ccccc4s3)cc2)cc1)C(=O)O` [Example 151, L-2-{4′-[(Benzothiazole-2-carbonyl)-amino]-biphenyl-4-sulfonylamino}-3-methyl-butyric acid], the IC50 worked out at 70000 nM against MMP-1, 11 nM at MMP-12, 0.4 nM on MMP-13 (setting [1]) and 35000 nM at MMP-14 (setting [2]).

Turning to `COc1c(Cl)ccc2oc(C(=O)Nc3ccc(-c4ccc(S(=O)(=O)N[C@H](C(=O)O)C(C)C)cc4)cc3)c(C)c12` [Example 116, (S)-2-{4′-[(5-Chloro-4-methoxy-3-methyl-benzofuran-2-carbonyl)-amino]-biphenyl-4-sulfonylamino}-3-methyl-butyric acid], the IC50 on MMP-1 (read-out: MMP-1 IC50, recombinant human catalytic domain of MMP-1) was 34100 nM; on MMP-12, 50 nM; on MMP-13 (setting [1]), 1.9 nM; on MMP-14 (setting [2]), 12400 nM; on MMP-2, 1490 nM.

As for `CC(=O)Nc1cccc2oc(C(=O)Nc3ccc(-c4ccc(S(=O)(=O)N[C@H](C(=O)O)C(C)C)cc4)cc3)c(C)c12` [Example 48, L-2-{4′-[(4-Acetylamino-3-methyl-benzofuran-2-carbonyl)-amino]-biphenyl-4-sulfonylamino}-3-methyl-butyric acid], the IC50 on MMP-12 was determined as 226 nM; at MMP-13 (setting [1]) it was 25 nM; at MMP-2, 3810 nM.

Take `Cc1c(C(=O)Nc2ccc(-c3ccc(S(=O)(=O)N[C@H](C(=O)O)C(C)C)cc3)cc2)oc2cccc(NC(=O)C3CC3)c12` [Example 47, L-2-(4′-{[4-(Cyclopropanecarbonyl-amino)-3-methyl-benzofuran-2-carbonyl]-amino}-biphenyl-4-sulfonylamino)-3-methyl-butyric acid]: the IC50 stood at 438 nM at MMP-12, 32 nM on MMP-13 (setting [1]) and 4290 nM at MMP-2.

For `CC#Cc1cccc2oc(C(=O)Nc3ccc(-c4ccc(S(=O)(=O)N[C@H](C(=O)O)C(C)C)cc4)cc3)c(C)c12` [Example 21, L-3-Methyl-2-{4′-[(3-methyl-4-prop-1-ynyl-benzofuran-2-carbonyl)-amino]-biphenyl-4-sulfonylamino}-butyric acid], the values for the IC50 on MMP-12, on MMP-13 (setting [1]) and on MMP-2 were 175 nM, 9.5 nM and 15000 nM, respectively.

`Cc1c(C(=O)Nc2ccc(-c3ccc(S(=O)(=O)N[C@H](C(=O)O)C(C)C)cc3)cc2)oc2cccc(-c3cccnc3)c12` [Example 111, (S)-3-methyl-2-{4′-[(3-methyl-4-pyridin-3-yl-benzofuran-2-carbonyl)-amino]-biphenyl-4-sulfonylamino}-butyric acid]: the IC50 amounted to 22000 nM against MMP-1; 84 nM on MMP-12; 4 nM at MMP-13 (setting [1]); 7310 nM on MMP-14 (setting [2]); 1340 nM at MMP-2.

As for `Cc1c(C(=O)Nc2ccc(-c3ccc(S(=O)(=O)N[C@H](C(=O)O)C(C)C)cc3)cc2)oc2cccc(Oc3ccccc3)c12` [Example 155, L-3-Methyl-2-{4′-[(3-methyl-4-phenoxy-benzofuran-2-carbonyl)-amino]-biphenyl-4-sulfonylamino}-butyric acid], the IC50 on MMP-1 turned out to be 25000 nM; at MMP-12 it was 508 nM; at MMP-13 (MMP-13 IC50, recombinant human catalytic domain of MMP-13), 19 nM; at MMP-14 (setting [2]) it was 8000 nM; on MMP-2, 5000 nM.

For `Cc1c(C(=O)Nc2ccc(-c3ccc(S(=O)(=O)N[C@H](C(=O)O)C(C)C)cc3)cc2)oc2cccc(NS(C)(=O)=O)c12` [Example 36, L-2-{4′-[(4-Methanesulfonylamino-3-methyl-benzofuran-2-carbonyl)-amino]-biphenyl-4-sulfonylamino}-3-methyl-butyric acid], the IC50 at MMP-12 turned out to be 126 nM; on MMP-13 (setting [1]) it was 11 nM; at MMP-2, 2250 nM.

With `CC(C)[C@H](NS(=O)(=O)c1ccc(-c2ccc(NC(=O)c3cc4c(-c5ccccc5)nn(C)c4s3)cc2)cc1)C(=O)O` [Example 167, (S)-3-Methyl-2-{4′-[(1-methyl-3-phenyl-1H-thieno[2,3-c]pyrazole-5-carbonyl)-amino]-biphenyl-4-sulfonylamino}-butyric acid], the IC50 against MMP-1 worked out at 90000 nM; at MMP-12 it was 97 nM; at MMP-13 (setting [1]), 12 nM; on MMP-14 (setting [2]) it was 11000 nM; on MMP-2, 9300 nM.

In the case of `COCC#Cc1cccc2oc(C(=O)Nc3ccc(-c4ccc(S(=O)(=O)N[C@H](C(=O)O)C(C)C)cc4)cc3)c(C)c12` [Example 22, L-2-(4′-{[4-(3-Methoxy-prop-1-ynyl)-3-methyl-benzofuran-2-carbonyl]-amino}-biphenyl-4-sulfonylamino)-3-methyl-butyric acid], the results for the IC50 on MMP-12, on MMP-13 (setting [1]) and on MMP-2 were 137 nM, 12 nM and 1940 nM, respectively.

Take `CCOc1cccc2oc(C(=O)Nc3ccc(-c4ccc(S(=O)(=O)N[C@H](C(=O)O)C(C)C)cc4)cc3)c(C)c12` [Example 106, (S)-2-{4′-[(4-ethoxy-3-methyl-benzofuran-2-carbonyl)-amino]-biphenyl-4-sulfonylamino}-3-methyl-butyric acid]: the IC50 amounted to 121 nM at MMP-12, 7.4 nM at MMP-13 (setting [1]) and 3590 nM on MMP-2.

Take `Cc1c(C(=O)Nc2ccc(-c3ccc(S(=O)(=O)N[C@H](C(=O)O)C(C)C)cc3)cc2)oc2cccc(C#N)c12` [Example 20, L-2-{4′-[(4-Cyano-3-methyl-benzofuran-2-carbonyl)-amino]-biphenyl-4-sulfonylamino}-3-methyl-butyric acid]: the concentration for half-maximal inhibition (IC50) worked out at 24000 nM against MMP-1; 33 nM at MMP-12; 3.7 nM at MMP-13 (setting [1]); 5450 nM on MMP-14; 581 nM at MMP-2.

For the compound `Cc1ccc2oc(C(=O)Nc3ccc(-c4ccc(S(=O)(=O)N[C@H](C(=O)O)C(C)C)cc4)cc3)nc2c1` [Example 129, (S)-3-Methyl-2-{4′-[(5-methyl-benzooxazole-2-carbonyl)-amino]-biphenyl-4-sulfonylamino}-butyric acid], the IC50 at MMP-12 was found to be 1.9 nM; at MMP-13 (setting [1]), 0.8 nM; on MMP-2 it was 116 nM.

Take `Cc1c(C(=O)Nc2ccc(-c3ccc(S(=O)(=O)N[C@H](C(=O)O)C(C)C)cc3)cc2)oc2cccc(C(N)=O)c12` [Example 46, L-2-{4′-[(4-Carbamoyl-3-methyl-benzofuran-2-carbonyl)-amino]-biphenyl-4-sulfonylamino}-3-methyl-butyric acid]: the IC50 against MMP-1 was 20200 nM; at MMP-12 it was 187 nM; at MMP-13 (setting [1]) it was 14 nM; on MMP-14 (setting [2]), 24800 nM; at MMP-2, 1000 nM.
